The IC50 is the concentration that gives 50% inhibition.

Data on 38 molecules can be found in patent US7781591B2, “Substituted 3-cyanopyridines as protein kinase inhibitors” (Wyeth LLC, priority 2006, dated 2010).

T1 sequence (Q04759 whole entry): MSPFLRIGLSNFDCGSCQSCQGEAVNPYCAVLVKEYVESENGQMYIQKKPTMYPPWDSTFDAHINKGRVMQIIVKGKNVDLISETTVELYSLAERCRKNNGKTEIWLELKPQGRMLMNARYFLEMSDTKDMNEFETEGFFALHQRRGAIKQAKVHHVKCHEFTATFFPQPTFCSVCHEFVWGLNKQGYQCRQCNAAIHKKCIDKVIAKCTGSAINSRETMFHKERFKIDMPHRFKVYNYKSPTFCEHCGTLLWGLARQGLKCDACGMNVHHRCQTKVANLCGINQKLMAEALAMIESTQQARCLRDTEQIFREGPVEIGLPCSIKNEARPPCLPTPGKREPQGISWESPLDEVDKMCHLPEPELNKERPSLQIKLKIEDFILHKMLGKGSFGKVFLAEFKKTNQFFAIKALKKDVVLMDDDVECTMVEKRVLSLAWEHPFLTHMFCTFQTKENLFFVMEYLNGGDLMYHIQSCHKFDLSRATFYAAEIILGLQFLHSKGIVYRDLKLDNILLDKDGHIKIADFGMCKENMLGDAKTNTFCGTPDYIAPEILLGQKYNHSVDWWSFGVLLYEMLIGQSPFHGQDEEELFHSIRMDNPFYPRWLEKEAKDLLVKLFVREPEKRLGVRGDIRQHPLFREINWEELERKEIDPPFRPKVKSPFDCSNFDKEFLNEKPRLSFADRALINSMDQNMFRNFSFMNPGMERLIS

The first experiment concerns the target T1, human PKCθ full length enzyme (Homo sapiens, UniProt Q04759).
T1 construct: human PKCθ full length enzyme (Panvera Cat# P2996); purchased Panvera P2996
Briefly: PKCθ IMAP assay (fluorescence polarization).
Conditions: not given
Type of experiment: biochemical. A general note: Fluorescence polarisation rises when a labelled molecule tumbles more slowly, as on binding a larger partner.
In the case of `Cc1c(Nc2c(C#N)cncc2-c2cc3cc(CN4CCN(C)CC4)ccc3s2)ccc2[nH]ccc12` [Compound 521, 4-[(4-methyl-1H-indol-5-yl)amino]-5-{5-[(4-methylpiperazin-1-yl)methyl]-1-benzothien-2-yl}nicotinonitrile], the IC50 came out at 1 nM.

Staying with this experiment, now noted: human PKCθ full length enzyme, IMAP; average value; read-out: IC50 PKCθ IMAP.
With `N#Cc1cncc(-c2cccc(OCCNCCO)c2)c1Nc1ccc2[nH]ccc2c1` [Compound 176, 5-(3-{2-[(2-hydroxyethyl)amino]ethoxy}phenyl)-4-(1H-indol-5-ylamino)nicotinonitrile], the IC50 amounted to 30 nM.

For `Cc1c(Nc2c(C#N)cncc2-c2ccc(OCCCN3CCOCC3)cc2)ccc2[nH]ccc12` [Compound 473, 4-[(4-methyl-1H-indol-5-yl)amino]-5-[4-(3-morpholin-4-ylpropoxy)phenyl]nicotinonitrile], the IC50 was found to be 24 nM.

On to `Cc1c(Nc2c(C#N)cncc2-c2cnc(C=O)n2C)ccc2[nH]ccc12` [Compound 537, 5-(2-formyl-1-methyl-1H-imidazol-5-yl)-4-[(4-methyl-1H-indol-5-yl)amino]nicotinonitrile], for which the IC50 came out at 23 nM.

On to `Cc1c(Nc2c(C#N)cncc2-c2nccn2C)ccc2[nH]ccc12` [Compound 542, 5-(1-methyl-1H-imidazol-2-yl)-4-[(4-methyl-1H-indol-5-yl)amino]nicotinonitrile], for which the IC50 came to 42 nM.

Turning to `Cc1c(Nc2c(C#N)cncc2-c2ccc3occc3c2)ccc2[nH]ccc12` [Compound 591, 5-(1-benzofuran-5-yl)-4-[(4-methyl-1H-indol-5-yl)amino]nicotinonitrile], the IC50 worked out at 19.7 nM.

Turning to `Cc1c(Nc2c(C#N)cncc2-c2ccc(OCCNCc3ccccc3)cc2)ccc2[nH]ccc12` [Compound 419, 5-{4-[2-(benzylamino)ethoxy]phenyl}-4-[(4-methyl-1H-indol-5-yl)amino]nicotinonitrile], the IC50 worked out at 4 nM.

Turning to `Cc1c(Nc2c(C#N)cncc2-c2cc3cc(C=O)ccc3s2)ccc2[nH]ccc12` [Compound 227, 5-(5-formyl-1-benzothien-2-yl)-4-[(4-methyl-1H-indol-5-yl)amino]nicotinonitrile], the IC50 was found to be 1 nM.

`Cc1c(Nc2c(C#N)cncc2-c2ccccc2CN(C)C)ccc2[nH]ccc12` [Compound 550, 5-{2-[(dimethylamino)methyl]phenyl}-4-[(4-methyl-1H-indol-5-yl)amino]nicotinonitrile]: the half-inhibitory concentration (IC50) was 205 nM.

In the case of `Cc1c(Nc2c(C#N)cncc2-c2cnc(N(C)C)nc2)ccc2[nH]ccc12` [Compound 513, 5-[2-(dimethylamino)pyrimidin-5-yl]-4-[(4-methyl-1H-indol-5-yl)amino]nicotinonitrile], the IC50 was 125 nM.

Consider `COCCNC(=O)c1ccc(-c2cccc(-c3cncc(C#N)c3Nc3ccc4[nH]ccc4c3)c2)cc1` [Compound 200, 3′-[5-cyano-4-(1H-indol-5-ylamino)pyridin-3-yl]-N-(2-methoxyethyl)biphenyl-4-carboxamide], for which the IC50 turned out to be 190 nM.

For `COc1ccc(-c2cncc(C#N)c2Nc2cnc3[nH]ccc3c2Cl)cc1OC` [Compound 522, 4-[(4-chloro-1H-pyrrolo[2,3-b]pyridin-5-yl)amino]-5-(3,4-dimethoxyphenyl)nicotinonitrile], the IC50 worked out at 20 nM.

Take `N#Cc1cncc(-c2cccc(CO)c2)c1Nc1cccc2[nH]ccc12` [Compound 270, 5-[3-(hydroxymethyl)phenyl]-4-(1H-indol-4-ylamino)nicotinonitrile]: the IC50 amounted to 20 nM.

Consider `COc1cc(-c2cncc(C#N)c2Nc2ccc3[nH]ccc3c2C)ccc1OCCN1CCOCC1` [Compound 378, 5-[3-methoxy-4-(2-morpholin-4-ylethoxy)phenyl]-4-[(4-methyl-1H-indol-5-yl)amino]nicotinonitrile], for which the IC50 was 30 nM.

For `COc1ccc(-c2cncc(C#N)c2NCC2CCNCC2)cc1OC` [Compound 445, 5-(3,4-dimethoxyphenyl)-4-[(piperidin-4-ylmethyl)amino]nicotinonitrile], the IC50 is 20400 nM.

`Cc1c(Nc2c(C#N)cncc2-c2ccc(OCCN3CCN(c4ccncc4)CC3)cc2)ccc2[nH]ccc12` [Compound 431, 4-[(4-methyl-1H-indol-5-yl)amino]-5-{4-[2-(4-pyridin-4-ylpiperazin-1-yl)ethoxy]phenyl}nicotinonitrile]: the IC50 came out at 5 nM.

On to `N#Cc1cncc(-c2cccc(OC[C@@H](N)Cc3ccccc3)c2)c1Nc1cccc2[nH]ccc12` [Compound 366, 5-(3-{[(2S)-2-amino-3-phenylpropyl]oxy}phenyl)-4-(1H-indol-4-ylamino)nicotinonitrile], for which the IC50 was found to be 20 nM.

Consider `COc1ccc(-c2cncc(C#N)c2Nc2cccc3[nH]c(C)cc23)cc1OC` [Compound 349, 5-(3,4-dimethoxyphenyl)-4-[(2-methyl-1H-indol-4-yl)amino]nicotinonitrile], for which the IC50 turned out to be 130 nM.

As to `Cc1c(Nc2c(C#N)cncc2-c2ccoc2)ccc2[nH]ccc12` [Compound 563, 5-(3-furyl)-4-[(4-methyl-1H-indol-5-yl)amino]nicotinonitrile], the IC50 was determined as 22 nM.

Turning to `COc1ccccc1-c1cncc(C#N)c1Nc1cccc2[nH]ccc12` [Compound 324, 4-(1H-indol-4-ylamino)-5-(2-methoxyphenyl)nicotinonitrile], the IC50 was 20 nM.

Take `Cc1c(Nc2c(C#N)cncc2-c2ccc(Br)cc2F)ccc2[nH]ccc12` [Compound 381, 5-(4-bromo-2-fluorophenyl)-4-[(4-methyl-1H-indol-5-yl)amino]nicotinonitrile]: the IC50 came to 20 nM.

Consider `Cc1c(Nc2c(C#N)cncc2-c2cc3cc(CNCC4CCN(C)CC4)ccc3o2)ccc2[nH]ccc12` [Compound 391, 4-[(4-methyl-1H-indol-5-yl)amino]-5-[5-({[(1-methylpiperidin-4-yl)methyl]amino}methyl)-1-benzofuran-2-yl]nicotinonitrile], for which the concentration for half-maximal inhibition (IC50) was found to be 1 nM.

As to `Cc1c(Nc2c(C#N)cncc2-c2ccc(OCCNCCCc3ccccc3)cc2)ccc2[nH]ccc12` [Compound 355, 4-[(4-methyl-1H-indol-5-yl)amino]-5-(4-{2-[(3-phenylpropyl)amino]ethoxy}phenyl)nicotinonitrile], the concentration for half-maximal inhibition (IC50) stood at 3 nM.

In the case of `COc1ccc(-c2cncc(C#N)c2Nc2cccc3[nH]ccc23)cc1OCCN1CCC(O)CC1` [Compound 302, 5-{3-[2-(4-hydroxypiperidin-1-yl)ethoxy]-4-methoxyphenyl}-4-(1H-indol-4-ylamino)nicotinonitrile], the IC50 was 30 nM.

As for `N#Cc1cncc(-c2ccc(OC[C@@H](N)Cc3ccccc3)cc2)c1Nc1cccc2[nH]ccc12` [Compound 226, 5-(4-{[(2S)-2-amino-3-phenylpropyl]oxy}phenyl)-4-(1H-indol-4-ylamino)nicotinonitrile], the IC50 turned out to be 3 nM.

`COc1ccc(-c2cncc(C#N)c2Nc2ccc3[nH]ccc3c2)cc1OCCNC1CCCCC1` [Compound 244, 5-{3-[2-(cyclohexylamino)ethoxy]-4-methoxyphenyl}-4-(1H-indol-5-ylamino)nicotinonitrile]: the IC50 was determined as 170 nM.

With `CNC(=O)c1ccc(-c2cccc(-c3cncc(C#N)c3Nc3ccc4[nH]ccc4c3)c2)cc1` [Compound 196, 3′-[5-cyano-4-(1H-indol-5-ylamino)pyridin-3-yl]-N-methylbiphenyl-4-carboxamide], the half-maximal inhibitory concentration (IC50) stood at 460 nM.

For the molecule `COC(=O)Nc1ccc(-c2cncc(C#N)c2Nc2ccc3[nH]ccc3c2C)cc1` [Compound 526, methyl (4-{5-cyano-4-[(4-methyl-1H-indol-5-yl)amino]pyridin-3-yl}phenyl)carbamate], the IC50 is 10 nM.

In the case of `COc1ccc(-c2cncc(C#N)c2N[C@H]2CC[C@@H](N)CC2)cc1OC` [Compound 446, 4-[(cis-4-aminocyclohexyl)amino]-5-(3,4-dimethoxyphenyl)nicotinonitrile], the IC50 was found to be 4880 nM.

As for `COc1cc(-c2cncc(C#N)c2Nc2ccc3[nH]ccc3c2C)ccc1OCCNCCCc1ccccc1` [Compound 344, 5-(3-methoxy-4-{2-[(3-phenylpropyl)amino]ethoxy}phenyl)-4-[(4-methyl-1H-indol-5-yl)amino]nicotinonitrile], the IC50 was 8 nM.

Regarding `Cc1c(Nc2c(C#N)cncc2-c2cc3cc(CN4CCN(C)CC4)ccc3o2)cc(Cl)c2[nH]ccc12` [Compound 529, 4-[(7-chloro-4-methyl-1H-indol-5-yl)amino]-5-{5-[(4-methylpiperazin-1-yl)methyl]-1-benzofuran-2-yl}nicotinonitrile], the 50% inhibitory concentration (IC50) is 2 nM.

Turning to `Cc1c(Nc2c(C#N)cncc2-c2cc3cc(CN4CCCC4)ccc3o2)ccc2[nH]ccc12` [Compound 389, 4-[(4-methyl-1H-indol-5-yl)amino]-5-[5-(pyrrolidin-1-ylmethyl)-1-benzofuran-2-yl]nicotinonitrile], the IC50 worked out at 3 nM.

For the molecule `N#Cc1cncc(-c2cc3ccccc3o2)c1Nc1ccc2[nH]ncc2c1` [Compound 373, 5-(1-benzofuran-2-yl)-4-(1H-indazol-5-ylamino)nicotinonitrile], the IC50 worked out at 1000 nM.

Consider `COc1ccc(-c2cncc(C#N)c2Nc2ccc3[nH]ccc3c2)cc1OCCNCCCc1ccccc1` [Compound 250, 4-(1H-indol-5-ylamino)-5-(4-methoxy-3-{2-[(3-phenylpropyl)amino]ethoxy}phenyl)nicotinonitrile], for which the IC50 is 20 nM.

On to `N#Cc1cncc(-c2cccc(-c3ccc(C(=O)N4CCCC4)cc3)c2)c1Nc1ccc2[nH]ccc2c1` [Compound 205, 4-(1H-indol-5-ylamino)-5-[4′-(pyrrolidin-1-ylcarbonyl)biphenyl-3-yl]nicotinonitrile], for which the IC50 is 510 nM.

`Cc1c(Nc2c(C#N)cncc2-c2ccc3ccccc3c2)ccc2[nH]ccc12` [Compound 582, 4-[(4-methyl-1H-indol-5-yl)amino]-5-(2-naphthyl)nicotinonitrile]: the IC50 turned out to be 92 nM.

On to `CN(C)c1ccc(-c2cncc(C#N)c2Nc2cc(O)[nH]n2)cc1` [Compound 294, 5-[4-(dimethylamino)phenyl]-4-[(5-hydroxy-1H-pyrazol-3-yl)amino]nicotinonitrile], for which the IC50 is 33400 nM.

For `Cc1c(Nc2c(C#N)cncc2-c2cnc3ccccc3c2)ccc2[nH]ccc12` [Compound 589, 4-[(4-methyl-1H-indol-5-yl)amino]-5-quinolin-3-ylnicotinonitrile], the IC50 came out at 191 nM.
